Assay results published in US20090093468A1, “Peptide Deformylase Inhibitors” (priority 2004, published 2009).

Assays:
[1] = target: T1, bacterial PDF (peptide deformylase), enzyme from S. aureus (Staphylococcus aureus, UniProt P68826); test: Bacterial peptide deformylase (PDF) assay, enzyme from S. aureus; type: biochemical; conditions: PDF enzyme from S. aureus; substrate f-Met-Ala; TNBS readout at 420 nm; read-out: IC50 (enzyme from S. aureus)
T1 sequence (P68826 1-183): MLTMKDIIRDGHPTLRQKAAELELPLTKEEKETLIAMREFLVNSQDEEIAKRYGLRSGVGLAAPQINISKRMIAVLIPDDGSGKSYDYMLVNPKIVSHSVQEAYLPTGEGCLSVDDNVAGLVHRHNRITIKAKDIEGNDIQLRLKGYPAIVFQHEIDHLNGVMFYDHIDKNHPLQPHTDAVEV
Method: (§1) The IC50 value of a compound of the invention as a bacterial PDF inhibitor was determined using the following assay.
(§2) Assay buffer (pH 7.2): 0.1 M MOPS pH was adjusted to 7.2 with NaOH, containing 0.25 M NaCl, 100 microgram/mL catalase and 1 mg/mL BSA.
(§3) Enzyme mix: 670 ng/mL of enzyme (to finally have 50 ng of enzyme per well).
(§4) Substrate: 10 mM f-Met-Ala was made up from 200 mM f-Met-Ala in methanol with assay buffer.
(§5) TNBS solution: Freshly dilute 1 M TNBS stock solution to 1:10 with water.
(§6) Buffer C: 0.5 M borate buffer adjusted to pH 9.5 with NaOH.
(§7) Buffer D: 0.2 ml of freshly prepared 0.5 M Na2SO3 was mixed with 9.8 mL of 0.5M NaH2PO4.
(§8) Inhibitor solution: 2 mM Sodium 4-(hydroxymercurio) benzoate in assay buffer.
(§9) The assay was performed in a 96 Microtiter plate containing test compound. To each well containing test compound mix was added 75 microliter of enzyme mix from E. coli followed, by the addition of 25 microliter of substrate mix. The resulting mix was incubated for 30 minutes at room temperature with shaking. TNBS solution (50 microliter/well) was added and the resulting mixture was incubated for 15 minutes under shaking. Buffer C was then added (20 microliter/well). After incubating at room temperature for 15 minutes under shaking, buffer D was added (50 microliter/well). The optical […] was then measured at 420 nm, thereby determining the IC50 value.
The assay was repeated using enzyme mix from S. aureus.

[2] = target: bacterial PDF (peptide deformylase), enzyme from E. coli (Escherichia coli, UniProt P0A6K3); test: Bacterial peptide deformylase (PDF) assay, enzyme from E. coli; type: biochemical
bacterial PDF (peptide deformylase), enzyme from E. coli, sequence (P0A6K3 whole entry): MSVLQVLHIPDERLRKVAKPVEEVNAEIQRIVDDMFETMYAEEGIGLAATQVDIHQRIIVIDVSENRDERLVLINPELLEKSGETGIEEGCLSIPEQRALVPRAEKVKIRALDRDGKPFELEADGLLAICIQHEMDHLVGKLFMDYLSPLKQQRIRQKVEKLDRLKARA
Method: as §1, §2, §3, §4, §5, §6, §7, §8, §9

| Compound | IC50 [1] | IC50 [2] |
| --- | --- | --- |
| CCN1CC(CC(=O)NO)S(=O)(=O)c2ccc(C(=O)NCc3cccs3)cc21 (stereo not drawn) [Example 29, 4-Ethyl-2-hydroxycarbamoylmethyl-1,1-dioxo-1,2,3,4-tetrahydro-1λ^6-benzo[1,4]thiazine-6-carboxylic acid (thiophen-2-ylmethyl)-amide] | 3.4 µM | 9.5 µM |
| CCN1CC(CC(=O)NO)S(=O)(=O)c2ccc(C(=O)NCc3cccc(OC)c3)cc21 (stereo not drawn) [Example 22, 4-Ethyl-2-hydroxycarbamoylmethyl-1,1-dioxo-1,2,3,4-tetrahydro-1λ^6-benzo[1,4]thiazine-6-carboxylic acid 3-methoxy-benzylamide] | 2.3 µM | 1 µM |
| CCN1CC(CC(=O)NO)S(=O)(=O)c2ccc(C(=O)NCc3ccc(OC)cc3)cc21 (stereo not drawn) [Example 23, 4-Ethyl-2-hydroxycarbamoylmethyl-1,1-dioxo-1,2,3,4-tetrahydro-1λ^6-benzo[1,4]thiazine-6-carboxylic acid 4-methoxy-benzylamide] | 13.1 µM | 4.9 µM |
| O=C(CC1CN(CC2CCC2)c2ccccc2S1(=O)=O)NO (stereo not drawn) [Example 36, 2-(4-Cyclobutylmethyl-1,1-dioxo-1,2,3,4-tetrahydro-1λ^6-benzo[1,4]thiazin-2-yl)-N-hydroxy-acetamide] | 3.8 µM | 3.3 µM |
| CCN1CC(CC(=O)NO)S(=O)(=O)c2ccc(C(=O)NCc3ccc([N+](=O)[O-])cc3)cc21 (stereo not drawn) [Example 20, 4-Ethyl-2-hydroxycarbamoylmethyl-1,1-dioxo-1,2,3,4-tetrahydro-1λ^6-benzo[1,4]thiazine-6-carboxylic acid 4-nitro-benzylamide] | 3.9 µM | 1.2 µM |
| CCN1CC(CC(=O)NO)S(=O)(=O)c2ccc(C(=O)N3CCN(C)CC3)cc21 (stereo not drawn) [Example 32, 2-[4-Ethyl-6-(4-methyl-piperazine-1-carbonyl)-1,1-dioxo-1,2,3,4-tetrahydro-1λ^6-benzo[1,4]thiazin-2-yl]-N-hydroxy-acetamide] | 128 µM | > 200 µM |
| CCCN1CC(CC(=O)NO)Sc2ccccc21 (stereo not drawn) [Example 5, N-Hydroxy-2-(4-propyl-3,4-dihydro-2H-benzo[1,4]thiazin-2-yl)-acetamide] | 8.5 µM | 7 µM |
| CCN1CC(CC(=O)NO)S(=O)(=O)c2ccc(C(=O)NCc3cccc(F)c3)cc21 (stereo not drawn) [Example 13, 4-Ethyl-2-hydroxycarbamoylmethyl-1,1-dioxo-1,2,3,4-tetrahydro-1λ^6-benzo[1,4]thiazine-6-carboxylic acid 3-fluoro-benzylamide] | 13.7 µM | 11.7 µM |
| O=C(CC1CNc2ccccc2S1(=O)=O)NO (stereo not drawn) [Example 2, 2-(1,1-Dioxo-1,2,3,4-tetrahydro-1λ^6-benzo[1,4]thiazin-2-yl)-N-hydroxy-acetamide] | 1.5 µM | 3.4 µM |
